Measurements taken from patent publication EP4806435A1, “DIHYDROCHROMENE-DERIVATIVE-CONTAINING THERAPEUTIC AGENT FOR CANCER” (Sumitomo Pharma Co., Ltd., priority 2023, dated 2025).
Like-named read-outs stand apart in the source and are kept apart here.

Test: Phase 1 clinical trial: plasma pharmacokinetics
Type: in vivo, human
Conditions: for Tmax / half-life / Cmax / AUC / AUC(0-t): human, plasma, oral; for half-life: read-out: Effective T1/2 (converted); for AUC: tau = 24 hours
Procedure: Summary statistics based on preliminary data were obtained for the pharmacokinetics of Compound 1 in patients receiving once-daily doses ranging from 20 mg to 240 mg (Table 5). The mean plasma concentration-time curves of Compound 1 in the once-daily dose groups ranging from 20 mg to 240 mg are shown in Figure 11. In this study, one cycle consists of 28 days, and Cycle 1 Day 1 refers to Day 1 of the first cycle. […] Accumulation was observed after repeated administration. […] Based on these accumulation ratios, the half-life of Compound 1 was estimated to be approximately 4 days. Based on the currently available data, plasma concentrations are considered to have reached steady state by Day 15.
Summary statistics based on preliminary data were obtained for the pharmacokinetics of Compound 1 in patients in the 20 mg QD, 40 mg QD, 80 mg QD, 120 mg QD, 180 mg QD, 240 mg QD, 360 mg QD, and 480 mg daily (240 mg BID) dose groups (Table 6). The mean plasma concentration-time curves of Compound 1 in the 20 mg QD to 480 mg daily (240 mg BID) dose groups are shown in Figure 12 (in Figure 12, Compound 1 is denoted as "DSP-0390"). In this study, one cycle consists of 28 days, and Cycle 1 Day 1 refers to Day 1 of the first cycle. […] The median Tmax ranged from 2 to 8 hours. Accumulation was observed after repeated administration, and assuming linearity based on the observed accumulation ratios, the estimated elimination half-life was considered to be on the order of several days (approximately 1 to 6 days) (data cut-off: March 2024).

[1] = 480 mg (240 mg BID), cut-off March 2024

CC1(C)Oc2cc(Cl)ccc2[C@@H]2OCC3(CCN(CCn4ccnc4)CC3)C[C@H]21 [Compound 1, (4'aR,10'bR)-8'-chloro-1-[2-(1H-imidazol-1-yl)ethyl]-5',5'-dimethyl-4'a,10'b-dihydro-2'H,4'H,5'H-spiro[piperidine-4,3'-pyrano[3,2-c][1]benzopyran] diphosphate]
AR AUC (accumulation ratio) (20 mg QD, cut-off March 2024): 7.31
AR Cmax (accumulation ratio) (20 mg QD, cut-off March 2024): 6.52
AR AUC (mean accumulation ratio) (20 mg, QD, cut-off April 2023): 7.4
AR Cmax (mean accumulation ratio) (20 mg, QD, cut-off April 2023): 6.1
AR AUC (accumulation ratio) (40 mg QD, cut-off March 2024): 8.93
AR Cmax (accumulation ratio) (40 mg QD, cut-off March 2024): 6.04
AR AUC (mean accumulation ratio) (40 mg, QD, cut-off April 2023): 8.6
AR Cmax (mean accumulation ratio) (40 mg, QD, cut-off April 2023): 6.2
AR AUC (accumulation ratio) (80 mg QD, cut-off March 2024): 4.47
AR Cmax (accumulation ratio) (80 mg QD, cut-off March 2024): 3.70
AR AUC (mean accumulation ratio) (80 mg, QD, cut-off April 2023): 6.9
AR Cmax (mean accumulation ratio) (80 mg, QD, cut-off April 2023): 5.8
AR AUC (accumulation ratio) (120 mg QD, cut-off March 2024): 4.52
AR Cmax (accumulation ratio) (120 mg QD, cut-off March 2024): 3.53
AR AUC (mean accumulation ratio) (120 mg, QD, cut-off April 2023): 5.3
AR Cmax (mean accumulation ratio) (120 mg, QD, cut-off April 2023): 4.6
AR AUC (accumulation ratio) (180 mg QD, cut-off March 2024): 3.55
AR Cmax (accumulation ratio) (180 mg QD, cut-off March 2024): 1.89
AR AUC (mean accumulation ratio) (180 mg, QD, N=1, cut-off April 2023): 3.9
AR Cmax (mean accumulation ratio) (180 mg, QD, cut-off April 2023): 2
AR AUC (accumulation ratio) (240 mg QD, cut-off March 2024): 3.29
AR Cmax (accumulation ratio) (240 mg QD, cut-off March 2024): 1.79
AR AUC (mean accumulation ratio) (240 mg, QD, N=1, cut-off April 2023): 3.9
AR Cmax (mean accumulation ratio) (240 mg, QD, cut-off April 2023): 2.6
AR AUC (accumulation ratio) (360 mg QD, cut-off March 2024): 2.07
AR Cmax (accumulation ratio) (360 mg QD, cut-off March 2024): 1.36
AR AUC (accumulation ratio) [1]: 1.61
AR Cmax (accumulation ratio) [1]: 2.42
half-life estimated from accumulation ratios (cut-off April 2023): approximately 4 days
Tmax (20 mg QD to 480 mg daily (240 mg BID), cut-off March 2024, read-out: median Tmax, range over dose groups): 2 to 8 h
half-life (20 mg, 20 mg QD, cut-off March 2024): 113 h
Cmax (20 mg, Cycle 1, Day 1, 20 mg QD, cut-off March 2024, read-out: Cmax): 4.28 ng/mL
Tmax (20 mg, Cycle 1, Day 1, 20 mg QD, cut-off March 2024, read-out: Tmax [a] median value): 6 h
AUC (20 mg, Cycle 1, Day 1, 20 mg QD, cut-off March 2024, read-out: AUCtau [b]): 76.6 ng·h/mL
AUC(0-t) (20 mg, Cycle 1 Day 1, 20 mg, QD, cut-off April 2023, read-out: AUC0-24 (geometric mean)): 76 ng·h/mL
AUC(0-t) (20 mg, Cycle 1 Day 1, 20 mg, QD, cut-off April 2023, read-out: AUC0-24 (mean)): 77 ng·h/mL
AUC(0-t) (20 mg, Cycle 1 Day 1, 20 mg, QD, cut-off April 2023, read-out: AUC0-24 (median)): 77 ng·h/mL
Cmax (20 mg, Cycle 1 Day 1, 20 mg, QD, cut-off April 2023, read-out: Cmax (geometric mean)): 4 ng/mL
Cmax (20 mg, Cycle 1 Day 1, 20 mg, QD, cut-off April 2023, read-out: Cmax (mean)): 4 ng/mL
Cmax (20 mg, Cycle 1 Day 1, 20 mg, QD, cut-off April 2023, read-out: Cmax (median)): 4 ng/mL
Tmax (20 mg, Cycle 1 Day 1, 20 mg, QD, cut-off April 2023, read-out: Tmax (mean)): 6 h
Tmax (20 mg, Cycle 1 Day 1, 20 mg, QD, cut-off April 2023, read-out: Tmax (median)): 6 h
Cmax (20 mg, Cycle 2, Day 1, 20 mg QD, cut-off March 2024, read-out: Cmax,ss): 27.9 ng/mL
Tmax (20 mg, Cycle 2, Day 1, 20 mg QD, cut-off March 2024, read-out: Tmax,ss [a] median value): 7 h
AUC (20 mg, Cycle 2, Day 1, 20 mg QD, cut-off March 2024, read-out: AUCtau,ss [b]): 560 ng·h/mL
AUC(0-t) (20 mg, Cycle 2 Day 1, 20 mg, QD, cut-off April 2023, read-out: AUC0-24 (geometric mean)): 557 ng·h/mL
AUC(0-t) (20 mg, Cycle 2 Day 1, 20 mg, QD, cut-off April 2023, read-out: AUC0-24 (mean)): 561 ng·h/mL
AUC(0-t) (20 mg, Cycle 2 Day 1, 20 mg, QD, cut-off April 2023, read-out: AUC0-24 (median)): 561 ng·h/mL
Cmax (20 mg, Cycle 2 Day 1, 20 mg, QD, cut-off April 2023, read-out: Cmax (geometric mean)): 28 ng/mL
Cmax (20 mg, Cycle 2 Day 1, 20 mg, QD, cut-off April 2023, read-out: Cmax (mean)): 28 ng/mL
Cmax (20 mg, Cycle 2 Day 1, 20 mg, QD, cut-off April 2023, read-out: Cmax (median)): 28 ng/mL
Tmax (20 mg, Cycle 2 Day 1, 20 mg, QD, cut-off April 2023, read-out: Tmax (mean)): 7 h
Tmax (20 mg, Cycle 2 Day 1, 20 mg, QD, cut-off April 2023, read-out: Tmax (median)): 7 h
half-life (40 mg, 40 mg QD, cut-off March 2024): 139 h
Cmax (40 mg, Cycle 1, Day 1, 40 mg QD, cut-off March 2024, read-out: Cmax): 9.87 ng/mL
Tmax (40 mg, Cycle 1, Day 1, 40 mg QD, cut-off March 2024, read-out: Tmax [a] median value): 8 h
AUC (40 mg, Cycle 1, Day 1, 40 mg QD, cut-off March 2024, read-out: AUCtau [b]): 131 ng·h/mL
AUC(0-t) (40 mg, Cycle 1 Day 1, 40 mg, QD, cut-off April 2023, read-out: AUC0-24 (geometric mean)): 123 ng·h/mL
AUC(0-t) (40 mg, Cycle 1 Day 1, 40 mg, QD, cut-off April 2023, read-out: AUC0-24 (mean)): 132 ng·h/mL
AUC(0-t) (40 mg, Cycle 1 Day 1, 40 mg, QD, cut-off April 2023, read-out: AUC0-24 (median)): 107 ng·h/mL
Cmax (40 mg, Cycle 1 Day 1, 40 mg, QD, cut-off April 2023, read-out: Cmax (geometric mean)): 8 ng/mL
Cmax (40 mg, Cycle 1 Day 1, 40 mg, QD, cut-off April 2023, read-out: Cmax (mean)): 10 ng/mL
Cmax (40 mg, Cycle 1 Day 1, 40 mg, QD, cut-off April 2023, read-out: Cmax (median)): 7 ng/mL
Tmax (40 mg, Cycle 1 Day 1, 40 mg, QD, cut-off April 2023, read-out: Tmax (mean)): 11 h
Tmax (40 mg, Cycle 1 Day 1, 40 mg, QD, cut-off April 2023, read-out: Tmax (median)): 8 h
Cmax (40 mg, Cycle 2, Day 1, 40 mg QD, cut-off March 2024, read-out: Cmax,ss): 59.6 ng/mL
Tmax (40 mg, Cycle 2, Day 1, 40 mg QD, cut-off March 2024, read-out: Tmax,ss [a] median value): 4 h
AUC (40 mg, Cycle 2, Day 1, 40 mg QD, cut-off March 2024, read-out: AUCtau,ss [b]): 1170 ng·h/mL
AUC(0-t) (40 mg, Cycle 2 Day 1, 40 mg, QD, cut-off April 2023, read-out: AUC0-24 (geometric mean)): 1110 ng·h/mL
AUC(0-t) (40 mg, Cycle 2 Day 1, 40 mg, QD, cut-off April 2023, read-out: AUC0-24 (mean)): 1180 ng·h/mL
AUC(0-t) (40 mg, Cycle 2 Day 1, 40 mg, QD, cut-off April 2023, read-out: AUC0-24 (median)): 1370 ng·h/mL
Cmax (40 mg, Cycle 2 Day 1, 40 mg, QD, cut-off April 2023, read-out: Cmax (geometric mean)): 56 ng/mL
Cmax (40 mg, Cycle 2 Day 1, 40 mg, QD, cut-off April 2023, read-out: Cmax (mean)): 60 ng/mL
Cmax (40 mg, Cycle 2 Day 1, 40 mg, QD, cut-off April 2023, read-out: Cmax (median)): 72 ng/mL
Tmax (40 mg, Cycle 2 Day 1, 40 mg, QD, cut-off April 2023, read-out: Tmax (mean)): 5 h
Tmax (40 mg, Cycle 2 Day 1, 40 mg, QD, cut-off April 2023, read-out: Tmax (median)): 4 h
half-life (80 mg, 80 mg QD, cut-off March 2024): 64.8 h
Cmax (80 mg, Cycle 1, Day 1, 80 mg QD, cut-off March 2024, read-out: Cmax): 17.1 ng/mL
Tmax (80 mg, Cycle 1, Day 1, 80 mg QD, cut-off March 2024, read-out: Tmax [a] median value): 8 h
AUC (80 mg, Cycle 1, Day 1, 80 mg QD, cut-off March 2024, read-out: AUCtau [b]): 264 ng·h/mL
AUC(0-t) (80 mg, Cycle 1 Day 1, 80 mg, QD, cut-off April 2023, read-out: AUC0-24 (geometric mean)): 203 ng·h/mL
AUC(0-t) (80 mg, Cycle 1 Day 1, 80 mg, QD, cut-off April 2023, read-out: AUC0-24 (mean)): 268 ng·h/mL
AUC(0-t) (80 mg, Cycle 1 Day 1, 80 mg, QD, cut-off April 2023, read-out: AUC0-24 (median)): 205 ng·h/mL
Cmax (80 mg, Cycle 1 Day 1, 80 mg, QD, cut-off April 2023, read-out: Cmax (geometric mean)): 13 ng/mL
Cmax (80 mg, Cycle 1 Day 1, 80 mg, QD, cut-off April 2023, read-out: Cmax (mean)): 17 ng/mL
Cmax (80 mg, Cycle 1 Day 1, 80 mg, QD, cut-off April 2023, read-out: Cmax (median)): 15 ng/mL
Tmax (80 mg, Cycle 1 Day 1, 80 mg, QD, cut-off April 2023, read-out: Tmax (mean)): 8 h
Tmax (80 mg, Cycle 1 Day 1, 80 mg, QD, cut-off April 2023, read-out: Tmax (median)): 8 h
Cmax (80 mg, Cycle 2, Day 1, 80 mg QD, cut-off March 2024, read-out: Cmax,ss): 63.2 ng/mL
Tmax (80 mg, Cycle 2, Day 1, 80 mg QD, cut-off March 2024, read-out: Tmax,ss [a] median value): 8 h
AUC (80 mg, Cycle 2, Day 1, 80 mg QD, cut-off March 2024, read-out: AUCtau,ss [b]): 1180 ng·h/mL
AUC(0-t) (80 mg, Cycle 2 Day 1, 80 mg, QD, cut-off April 2023, read-out: AUC0-24 (geometric mean)): 1100 ng·h/mL
AUC(0-t) (80 mg, Cycle 2 Day 1, 80 mg, QD, cut-off April 2023, read-out: AUC0-24 (mean)): 1190 ng·h/mL
AUC(0-t) (80 mg, Cycle 2 Day 1, 80 mg, QD, cut-off April 2023, read-out: AUC0-24 (median)): 1110 ng·h/mL
Cmax (80 mg, Cycle 2 Day 1, 80 mg, QD, cut-off April 2023, read-out: Cmax (geometric mean)): 58 ng/mL
Cmax (80 mg, Cycle 2 Day 1, 80 mg, QD, cut-off April 2023, read-out: Cmax (mean)): 63 ng/mL
